Assays:
[1] = log P by HPLC on reversed-phase column (C18), EEC Directive 79/831 Annex V.A8; conditions: for chromatographic logP: reversed-phase HPLC column (C18)
Excerpt: Called log P (HCOOH) in the table.
Called log P (neutral) in the table.

Phaedon cochleariae = Phaedon cochleariae spray test; type: in vivo; conditions: 500 g/ha, after 7 days, beetle larvae killed; for pest or weed control at 500 g/ha: Phaedon cochleariae, 168 h, read-out: efficacy in %
Method: Phaedon cochleariae-Spray Test
(§1) Solvent: 78.0 parts by weight of acetone
(§2) • 1.5 parts by weight of dimethylformamide Emulsifier: alkylaryl polyglycol ether
(§3) To produce a suitable preparation of active compound, 1 part by weight of active compound is dissolved using the stated parts by weight of solvent and made up with water containing an emulsifier concentration of 1000 ppm until the desired concentration is attained. To produce further test concentrations, the preparation is diluted with emulsifier-containing water.
After 7 days, the efficacy in % is determined. 100% means that all the beetle larvae have been killed; 0% means that no beetle larvae have been killed.

Myzus persicae [2] = test: Myzus persicae spray test (Chinese cabbage leaf discs); type: in vivo; conditions: 500 g/ha, after 6 days, aphids killed; for pest or weed control at 500 g/ha: Myzus persicae, foliar, 144 h, read-out: efficacy in %
Method: (§4) Myzus persicae Spray Test
Solvent: 78 parts by weight of acetone
as §2, §3
Discs of Chinese cabbage leaves (Brassica pekinensis) infested by all stages of the green peach aphid (Myzus persicae) are sprayed with an active compound preparation of the desired concentration.
After 6 days, the efficacy in % is determined. 100% means that all the aphids have been killed; 0% means that no aphids have been killed.

Ctenocephalides felis = Ctenocephalides felis oral test; type: in vivo; conditions: 100 ppm, after 2 days
Method: Ctenocephalides felis-Oral Test
(§5) Solvent: dimethyl sulphoxide
To produce a suitable preparation of active compound, 10 mg of active compound are mixed with 0.5 ml of dimethyl sulphoxide. Dilution with citrated cattle blood gives the desired concentration.
About 20 unfed adult cat fleas (Ctenocephalides felis) are placed into a chamber which is closed at the top and bottom with gauze. A metal cylinder whose bottom end is closed with parafilm is placed onto the chamber. The cylinder contains the blood/active compound preparation, which can be imbibed by the fleas through the parafilm membrane.
After 2 days, the kill in % is determined. 100% means that all of the fleas have been killed; 0% means that none of the fleas have been killed.

Lucilia cuprina = Lucilia cuprina test; type: in vivo; conditions: 100 ppm, after 2 days, L1 larvae
Method: as §5
(§6) To produce a suitable preparation of active compound, 10 mg of active compound are mixed with 0.5 ml of dimethyl sulphoxide, and the concentrate is diluted with water to the desired concentration.
About 20 L1 larvae of the Australian sheep blowfly (Lucilia cuprina) are transferred into a test vessel containing minced horsemeat and the active compound preparation of the desired concentration.
After 2 days, the kill in % is determined. 100% means that all the larvae have been killed; 0% means that no larvae have been killed.

Musca domestica = Musca domestica test; type: in vivo; conditions: 100 ppm, after 2 days, adult houseflies
Method: as §5, §6
Vessels containing a sponge treated with sugar solution and the active compound preparation of the desired concentration are populated with 10 adult houseflies (Musca domestica).
After 2 days, the kill in % is determined. 100% means that all of the flies have been killed; 0% means that none of the flies have been killed.

Meloidogyne incognita = Meloidogyne incognita test; type: in vivo; conditions: 20 ppm, after 14 days, formation of galls
Method: Meloidogyne incognita-Test
Solvent: 125.0 parts by weight of acetone
To produce a suitable preparation of active compound, 1 part by weight of active compound is mixed with the stated amount of solvent and the concentrate is diluted with water to the desired concentration.
Vessels are filled with sand, active compound solution, an egg/larvae suspension of the southern root-knot nematode (Meloidogyne incognita) and lettuce seeds. The lettuce seeds germinate and the plants develop. The galls develop on the roots.
After 14 days, the nematicidal efficacy in % is determined by the formation of galls. 100% means that no galls were found; 0% means that the number of galls on the treated plants corresponds to the untreated control.

Spodoptera frugiperda = Spodoptera frugiperda spray test; type: in vivo; conditions: 500 g/ha, after 7 days, caterpillars killed
Method: Spodoptera frugiperda-Spray Test Solvent: 78.0 parts by weight of acetone • • 1.5 parts by weight of dimethylformamide Emulsifier: alkylaryl polyglycol ether […] To produce further test concentrations, the preparation is diluted with emulsifier-containing water. Leaf disks of maize (Zea mays) are sprayed with an active compound preparation of the desired concentration and, after drying, populated with caterpillars of the armyworm (Spodoptera frugiperda).

Tetranychus urticae = Tetranychus urticae spray test, OP-resistant; type: in vivo; conditions: 500 g/ha, after 6 days, spider mites killed
Method: Tetranychus urticae-Spray Test, OP-Resistant
as §1, §2, §3
Discs of bean leaves (Phaseolus vulgaris) infested with all stages of the greenhouse red spider mite (Tetranychus urticae) are sprayed with an active compound preparation of the desired concentration.
After 6 days, the efficacy in % is determined. 100% means that all the spider mites have been killed; 0% means that no spider mites have been killed.

Myzus persicae [3] = test: Myzus persicae spray test (bell pepper plants); type: in vivo; conditions: 100 ppm, after 6 days
Method: as §4
Solvent: 7 parts by weight of dimethylformamide
Emulsifier: alkylaryl polyglycol ether
as §3, with “water. If the addition of ammonium salts or/and penetrants is required, these are each added in a concentration of 1000 ppm to the formulation solution.” for “water.”
Bell pepper plants (Capsicum annuum) severely infested with the green peach aphid (Myzus persicae) are treated by spraying with the active compound preparation in the desired concentration.
After 6 days, the kill in % is determined. 100% means that all of the aphids have been killed; 0% means that none of the aphids have been killed.

Boophilus microplus = Boophilus microplus injection test; type: in vivo; conditions: 20 μg/animal, assessed after 7 days
Method: Boophilus microplus-Injection Test
as §5
To produce a suitable preparation of active compound, 10 mg of active compound are mixed with 0.5 ml of solvent and the concentrate is diluted with solvent to the desired concentration.
1 μl of the active compound solution is injected into the abdomen of 5 engorged adult female cattle ticks (Boophilus microplus). The animals are transferred into dishes and kept in a climate-controlled room.
Efficacy is assessed after 7 days by laying of fertile eggs. Eggs which are not visibly fertile are stored in a climate-controlled cabinet until the larvae hatch after about 42 days. An efficacy of 100% means that none of the ticks has laid any fertile eggs; 0% means that all the eggs are fertile.

[4] = test system: Anopheles gambiae strain RSPH (homozygot kdr); test: Anopheles test (ANPHGB surface treatment); type: in vivo; conditions: 24 hours after contact
Method: Anopheles Test (ANPHGB Surface Treatment)
(§7) Solvent: acetone+2000 ppm rapeseed oil methyl ester (RME)
(§8) To produce an appropriate active compound formulation, the active compound is dissolved in the solvent (2 mg/ml). The active compound formulation is pipetted onto a glazed tile and, after it has dried off, adult mosquitoes of the species Anopheles gambiae strain RSPH (homozygot kdr) are placed onto the treated tile. The exposure time is 30 minutes.
(§9) 24 hours after contact with the treated surface, mortality in % is determined. 100% means that all mosquitoes have been killed; 0% means that none of the mosquitoes have been killed.

[5] = test system: Anopheles funestus strain FUMOZ-R; test: whole plant or invertebrate; type: in vivo; conditions: read-out: mortality in %
Method: Anopheles Test (ANPHFU Surface Treatment)
as §7
as §8, with “funestus” for “gambiae”, “FUMOZ-R (Hunt et al., Med Vet Entomol. 2005 September; 19(3):271-5)” for “RSPH (homozygot kdr)”
as §9

[6] = test system: Aedes aegypti strain MONHEIM; test: whole plant or invertebrate; type: in vivo; conditions: read-out: mortality in %
Method: Aedes Test (AEDSAE Surface Treatment)
as §7
as §8, with “Aedes aegypti” for “Anopheles gambiae”, “MONHEIM” for “RSPH (homozygot kdr)”
as §9

[7] = LC-MS acidic range, pH 2.7 (HCOOH), C18, 55° C.
[8] = LC-MS neutral range, pH 7.8, C18, 55° C.
[9] = pH 2.7, logP-acidic, LC-MS acidic range, pH 2.7 (HCOOH), C18, 55° C.
[10] = pH 7.8, log P (neutral), preparation examples, neutral range, pH 7.8
[11] = pH 7.8, logP-neutral, LC-MS neutral range, pH 7.8, C18, 55° C.

Row | SMILES | logP-acidic ([1]; pH 2.7) | logP-neutral ([1]; pH 7.8) | efficacy in % (Phaedon cochleariae) [%] | efficacy in % (Myzus persicae [2]) [%] | nematicidal efficacy in % (Meloidogyne incognita) [%] | efficacy in % (Spodoptera frugiperda) [%] | efficacy in % (Tetranychus urticae) [%] | also measured
1 | CCS(=O)(=O)c1ccc(NC(=O)C(F)(F)C(F)F)nc1-c1nc2cc(C(F)(F)F)ncc2n1C [Example 8] | 2.80 | 2.12 | 100 | 90 |  |  |  | kill in % (Ctenocephalides felis): 100%; kill in % (Lucilia cuprina): 100%; kill in % (Musca domestica): 100%
2 | CCS(=O)(=O)c1ccc(NC(=O)C(C)CSC)nc1-c1nc2cc(C(F)(F)F)ncc2n1C (centres unmarked) [Example 65] | 2.94 | 2.78 | 100 | 100 | 100 |  |  | 
3 | CCS(=O)(=O)c1ccc(SC(C)C)nc1-c1nc2cc(C(F)(F)F)ncc2n1C [Example 29] |  |  |  |  | 90 |  |  | logP-acidic [1, 7]: 3.62; logP-neutral [1, 8]: 3.53
4 | CCS(=O)(=O)c1ccc(N(C)C)nc1-c1nc2cc(C(F)(F)F)ncc2n1C [Example 64] |  |  | 100 | 90 |  | 100 |  | logP-acidic [1, 7]: 2.55; logP-neutral [1, 8]: 2.49
5 | CCS(=O)(=O)c1ccc(OC(C)C)nc1-c1nc2cc(C(F)(F)F)ncc2n1C [Example 18] | 3.31 | 3.22 |  |  | 90 |  |  | 
6 | CCS(=O)(=O)c1ccc(NC(C)=O)nc1-c1nc2cc(C(F)(F)C(F)(F)F)ncc2n1C [Example 62] | 2.54 | 2.47 | 100 |  | 90 | 100 | 90 | 
7 | CCS(=O)(=O)c1ccc(/C=C/C2CC2)nc1-c1nc2cc(C(F)(F)F)ncc2n1C [Example 40, 2-{6-[(E)-2-Cyclopropylvinyl]-3-(ethylsulphonyl)pyridin-2-yl}-3-methyl-6-(trifluoromethyl)-3H-imidazo[4,5-c]pyridine] |  |  |  |  |  | 100 |  | chromatographic logP [1, 9]: 3.33; chromatographic logP [1, 10]: 3.24; chromatographic logP [1, 11]: 3.24; pest or weed control at 500 g/ha (Phaedon cochleariae): 100%; kill in % (Myzus persicae [3]): 100%
8 | CCS(=O)(=O)c1ccc(N)nc1-c1nc2cc(C(F)(F)C(F)(F)F)ncc2n1C [Example 67] | 2.14 | 2.14 | 100 | 90 |  | 100 | 100 | 
9 | CCOc1ccc(S(=O)(=O)CC)c(-c2nc3cc(C(F)(F)F)ncc3n2C)n1 [Example 10, 2-[6-Ethoxy-3-(ethylsulphonyl)pyridin-2-yl]-3-methyl-6-(trifluoromethyl)-3H-imidazo[4,5-c]pyridine] |  |  |  |  |  | 83 |  | chromatographic logP [1, 9]: 2.94; chromatographic logP [1, 10]: 2.86; chromatographic logP [1, 11]: 2.86; pest or weed control at 500 g/ha (Phaedon cochleariae): 100%; pest or weed control at 500 g/ha (Myzus persicae [2]): 90%; kill in % (Lucilia cuprina): 100%; kill in % (Musca domestica): 90%
10 | CCNc1ccc(S(=O)(=O)CC)c(-c2nc3cc(C(F)(F)F)ncc3n2C)n1 [Example 56] |  |  | 100 | 100 | 100 |  | 90 | logP-acidic [1, 7]: 2.37; logP-neutral [1, 8]: 2.35
11 | CCS(=O)(=O)c1ccc(N)nc1-c1nc2cc(C(F)(F)F)ncc2n1C [Example 14, 5-(Ethylsulphonyl)-6-[3-methyl-6-(trifluoromethyl)-3H-imidazo[4,5-c]pyridin-2-yl]pyridine-2-amine] |  |  |  |  | 90 |  |  | chromatographic logP [1, 9]: 1.63; chromatographic logP [1, 10]: 1.62; chromatographic logP [1, 11]: 1.62; pest or weed control at 500 g/ha (Phaedon cochleariae): 100%; pest or weed control at 500 g/ha (Myzus persicae [2]): 90%; efficacy (laying of fertile eggs) (Boophilus microplus): 80%; kill in % (Ctenocephalides felis): 100%; kill in % (Lucilia cuprina): 100%; mortality at 20 mg/m2 ([4]; 20 mg/m^2, 30 minutes exposure): 80 to 100%; mortality at 100 mg/m2 ([4]; 100 mg/m^2, 30 minutes exposure): 80 to 100%; mortality at 20 mg/m2 [5]: 80 to 100%; mortality at 100 mg/m2 [5]: 80 to 100%; mortality at 20 mg/m2 [6]: 80 to 100%; mortality at 100 mg/m2 [6]: 80 to 100%
12 | CCS(=O)(=O)c1ccc(NC(=O)COC)nc1-c1nc2cc(C(F)(F)F)ncc2n1C [Example 21] | 2.22 | 2.17 | 100 | 90 |  | 100 |  | 
13 | CCS(=O)(=O)c1ccc(NC(=O)C(F)F)nc1-c1nc2cc(C(F)(F)F)ncc2n1C [Example 24] | 2.34 | 2.22 | 100 | 100 |  |  | 90 | 

— patent US10654845B2, “2-(het)aryl-substituted fused bicyclic heterocycle derivatives as pesticides” (BAYER CROPSCIENCE AKTIENGESELLSCHAFT, priority 2015, dated 2020)
